N#Cc1ccc(F)c(Br)c1
melting point: 56 °C

c1ccc2cc3c(cc2c1)nnc1ncnn13
melting point: 198 to 202 °C

OCC1OC(n2cnc3c2N=CNCC3O)CC1O (stereo not drawn)
melting point: 220 °C

N#CC(=Cc1ccc(Cl)cc1)C(N)=O
melting point: 100 °C

O=C(Cl)c1ccc(-c2cccs2)s1
melting point: 73.3 to 74.4 °C

N#Cc1c(Cl)cccc1Oc1ccc(S(=O)(=O)Cl)cc1
melting point: 137 to 139 °C

O=C(C(Cl)(Cl)Cl)C(Cl)(Cl)Cl
melting point: -2 °C

CCCCCC1C(=O)CCC1CC(=O)OC (stereo not drawn)
melting point: -10 °C

COc1cc(N)c2c(c1N)C(=O)c1ccccc1C2=O
melting point: 242 °C

CSSC
melting point: -85 °C

O=C(O)/C(=C/c1ccc([N+](=O)[O-])cc1)c1ccccc1C(=O)O
melting point: 223 °C

Cc1cc(F)ccc1O
melting point: 37 to 38 °C

COc1cc(Br)cc2cc(C(=O)O)c(=O)oc12
melting point: 226 to 228 °C

Cc1cc(=O)[nH]c2c(/N=N/c3ccc(Cl)cc3)c(N)nn12
melting point: 307 to 308 °C

N#CCC(=O)c1ccc(Cl)c(Cl)c1
melting point: 116 °C

O=C(O)CN1C(=O)c2ccccc2C1=O
melting point: 195 to 198 °C

O=c1c2ccccc2[nH]c2ccccc12
melting point: 360 to 362 °C

CCC(=N\NC(N)=O)/C(C)=N\NC(N)=O
melting point: 244 to 245 °C

O=[N+]([O-])CC(O)C(Cl)(Cl)Cl (stereo not drawn)
melting point: 45.5 °C

OCC1NC(CO)C(O)C1O (stereo not drawn)
melting point: 102 °C

O=C(O)Cn1cc(Cl)c(=O)c(Cl)c1
melting point: 259 to 263 °C

c1ccc2c(c1)NCCN2
melting point: 99 °C

O=P(N1CCOCC1)(N1CCOCC1)N1CCOCC1
melting point: 190 °C

O=C(O)CN(CC(=O)O)CC(=O)O
melting point: 245 °C

CC(C)c1ccc(CC(=O)O)cc1
melting point: 52 °C

CC(C)(O)C#Cc1ccc(C=NO)cc1
melting point: 109 to 112 °C

CC1=C(c2ccccc2)C(=O)N(C(C)(C)c2cc(Cl)cc(Cl)c2)CO1
melting point: 150 °C

CCC1CC(NC(C)=O)CC(C)(C)N1O (stereo not drawn)
melting point: 142 to 145 °C

CCC(C)OC(=O)C1=C(C)NC(=O)NC1c1ccco1 (stereo not drawn)
melting point: 185 °C

CC12CCC(O)CC1CCC1C2C(O)CC2(C)C1CCC2(O)C(=O)CO (stereo not drawn)
melting point: 244 °C

CC1(C)CC(=O)C2=C(C1)Nc1c(ccc3ccccc13)C2c1ccc(F)cc1 (stereo not drawn)
melting point: 279 °C

CCC(C)CCCCO (stereo not drawn)
melting point: -104 °C

c1c2c(cc3c1OCO3)CC2
melting point: 62 °C

CCOC(=O)NC(=O)CCl
melting point: 127 to 131 °C

COc1ccc(C(C=C(SC)SC)=C(C#N)C#N)cc1
melting point: 149 to 152 °C

O=C(/C=C/c1ccc(OCCCCl)cc1)c1ccccc1
melting point: 74 °C

CC(C)(C)OC(=O)N[C@@H](Cc1cccc(C#N)c1)C(=O)O
melting point: 124 °C

O=C(C(F)(F)F)C(F)(F)Cl
melting point: -133 °C

COc1ccnc(-c2cc(OC)ccn2)c1
melting point: 169 to 174 °C

CC12CCC(C(=O)/C(=C\c3ccccc3[N+](=O)[O-])C1=O)C2(C)C (stereo not drawn)
melting point: 140 to 141 °C

N#Cc1ccc(Cn2cncn2)cc1
melting point: 69 to 72 °C

OCCN1CCNC1=S
melting point: 136 to 138 °C

CCC1(C2=CC3CCC(C2)C3)C(=O)NC(=O)NC1=O (stereo not drawn)
melting point: 213 °C

COC(=O)C1=C(C)NC(C)=C(C(=O)OC)C1c1ccc(OC)cc1
melting point: 173 to 177 °C

CC(=O)c1csc(-c2ccccc2)n1
melting point: 84 °C

O=c1[nH][nH]c(=O)[nH]1
melting point: 250 °C

O=C(O)C=Cc1ccc(O)cc1
melting point: 214 °C

CC1(C(=O)O)CCC(C=Cc2ccccc2)C1(C)C (stereo not drawn)
melting point: 124 °C

COC(=O)C=Cc1cccs1
melting point: 49 °C

COc1ncnc(NS(=O)(=O)c2ccc(N)cc2)c1OC
melting point: 192 °C

CC(=O)CCc1cc2c(cc1[N+](=O)[O-])CCC(C)N2C(=O)c1ccccc1 (stereo not drawn)
melting point: 138 °C

Cn1c(=O)c(C2=NNC(=O)C2=CNc2ccccc2)c(O)c2ccccc21
melting point: 272 °C

COC(=O)c1ccccc1C(=O)c1cc(C)c(O)c(C)c1
melting point: 155 to 157 °C
